Patent US10400008B2, “Modulators of the SRC-kinase activity for preventing or treating metastatic cancer” (Cancer Research Technology Limited, priority 2013, dated 2019)
“And” between values parts separate entries of the source, which are not always exact repeats. Identical values can stand only once.

Columns and labels:
[1] = Body weight in the orthotopic PC-3 prostate cancer model
Experimental: Mice were weighed twice a week, and after 4 weeks, mice were sacrificed. Gross necropsy was performed to all animals at the end of the study, and all macroscopic signs were recorded. Volume of the prostate tumors was measured and prostate as well as prostate draining lymph nodes were collected for histology. The number of metastasis in lymph nodes was determined under microscope.
The animals were weighed twice a week. For the last 5 days of the study, the animals were observed daily to monitor the progression of disease. Appearance of any clinical signs was recorded on follow-up forms. Analgesic was given if needed.
At the end of the study, the animals were weighed and sacrificed with cervical dislocation under anesthesia. Necropsy was carried out in all animals. Macroscopic findings were recorded on the follow-up forms. Tissue samples from prostate with tumor and lymph nodes were collected for histology and number of metastases in lymph nodes was determined.
Statistical analysis was performed with R: A Language and Environment for Statistical Computing (version 2.14.2; R Development Core Team, Vienna, Austria). The mean and standard deviation of the body weights and the tumor volumes at sacrifice were determined. Normality of the distributions and homogeneity of variance were checked before further analyses. In case of violating these assumptions, either log transformation or other appropriate transformation (e.g. square root, reciprocal) was applied. If the assumptions were fulfilled as such or after transformation, one-way ANOVA was used to study if the values obtained between the groups were statistically different (with p<0.05). If differences were found, Tukey's HSD test was used for pairwise comparison between all groups. If the assumptions were not fulfilled even after the transformations described above, the non-parametric Kruskal-Wallis test followed by Mann-Whitney U-test were used.
We have studied the effects of Val201 on cell proliferation of the ER positive human prostate cancer cell line PC-3 in vitro and growth and metastatis in vivo in an orthotopic xenograft model. The proliferation effects were studied for 100 pM, 1 nM, 10 nM, 100 nM and 1 μM concentrations of VAL201 by measuring WST-1 values at days 3, 5, 7 and 9. Groups with vehicle and 1 μM gemcitabine as reference compound were included in the study. […] PC-3 cells in Matrigel were inoculated orthotopically into the prostate. Subcutaneous dosing was started at day 1 and continued daily for 28 days. The mice were weighed twice a week. Orthotopic tumors were measured by calliper and the prostate and the regional lymph nodes were harvested at sacrifice. Metastases in lymph nodes were determined from HE stained paraffin sections.

HT1080 cells = experiment: Migration in Trans-well filters and wound healing of HT1080 cells; format: cell-based, human; conditions: 6 h, peptide 1 nM
Experimental: FIG. 4: The S1 peptide inhibits EGF-stimulated migration and MMP-9 secretion in HT1080 cells. Quiescent HT1080 cells were used. In A, cells were left untreated or treated for 6 h with the indicated compounds. MMP-9 release was assayed as described in Methods. In B, cells were allowed to migrate for 6 h in Trans-well filters in the absence or presence of the indicated compounds. Migrated cells were stained and counted as reported in Methods. In A and B, data were expressed as relative increase. Mean and SEM is shown. n represents the number of experiments. In C, cells were wounded and then left unstimulated or stimulated for 6 h with the indicated compounds. Contrast-phase images are representative of 3 different experiments, each performed in duplicate.
BrdU incorporation, migration and wound healing analysis were done as described (3, 11). MMP-9 activity was assayed (12, 13), using the fluorescent AK411 kit (BIOMOL Res. Lab.).

[2] = molecular target: AR association with Src-SH3 domain (Homo sapiens, UniProt P12931); conditions: androgen-challenged LNCaP cells, reference 10; cited from earlier work
Chain of AR association with Src-SH3 domain (P12931 2-536 limits assumed): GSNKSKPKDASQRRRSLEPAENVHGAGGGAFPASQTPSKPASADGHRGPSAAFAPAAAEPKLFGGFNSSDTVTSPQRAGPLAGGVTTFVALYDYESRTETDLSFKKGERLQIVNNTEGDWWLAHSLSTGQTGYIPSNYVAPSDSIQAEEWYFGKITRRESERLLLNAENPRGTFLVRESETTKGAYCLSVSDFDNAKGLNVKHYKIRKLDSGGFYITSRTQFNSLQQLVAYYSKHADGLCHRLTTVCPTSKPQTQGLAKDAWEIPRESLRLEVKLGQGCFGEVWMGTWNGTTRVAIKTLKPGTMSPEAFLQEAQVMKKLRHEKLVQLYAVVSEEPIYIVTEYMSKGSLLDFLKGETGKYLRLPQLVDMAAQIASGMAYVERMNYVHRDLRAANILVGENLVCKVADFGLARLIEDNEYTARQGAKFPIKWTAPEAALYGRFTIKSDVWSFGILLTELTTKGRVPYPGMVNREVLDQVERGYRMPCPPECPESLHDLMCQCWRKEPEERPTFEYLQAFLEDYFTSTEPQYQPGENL

Ac-PPPHPHARIK-NH2 [VAL001]
Body weight at sacrifice relative to maximum weight ([1]; 0.004 mg/kg, mean): 96.6
Body weight at sacrifice relative to maximum weight ([1]; 0.004 mg/kg, single animals): 95.1 (2×) and 100.0 and 93.8 and 95.7 and 97.9 and 94.1 and 97.8 and 97.6 and 99.2
Body weight at sacrifice relative to maximum weight ([1]; 0.04 mg/kg, mean): 96.1
Body weight at sacrifice relative to maximum weight ([1]; 0.04 mg/kg, single animals): 100.0 and 96.1 and 94.9 and 96.7 and 93.8 and 93.0 and 94.8 and 98.0 (2×) and 96.2
Body weight at sacrifice relative to maximum weight ([1]; 0.4 mg/kg, mean): 97.6
Body weight at sacrifice relative to maximum weight ([1]; 0.4 mg/kg, single animals): 98.2 and 91.1 and 96.6 and 90.7 and 100.0 (4×) and 99.5 and 99.6
Body weight at sacrifice relative to maximum weight ([1]; 4 mg/kg, mean): 95.3
Body weight at sacrifice relative to maximum weight ([1]; 4 mg/kg, single animals): 100.0 and 90.8 and 86.2 and 95.7 and 96.8 and 95.5 and 98.2 and 98.4 and 98.0 and 93.3
EGF-increased motility (HT1080 cells): inhibited at a similar extent
AR association with Src-SH3 domain [2]: competes
